Earlier results, collected in US8470984B2, “Process for the preparation of morpholinyl anthracycline derivatives” (Nerviano Medical Sciences S.R.L., priority 2010, dated 2013).

## COc1cccc2c1C(=O)c1c(O)c3c(c(O)c1C2=O)C[C@@](O)(C(=O)CO)C[C@@H]3O[C@H]1C[C@H]2[C@H](O[C@@H]3[C@@H](OC)OCCN32)[C@H](C)O1 [compound 1, 3′-deamino-3″-4′-anhydro-[2″(S)-methoxy-3″(R)-hydroxy-4″-morpholinyl]doxorubicin]
Tumor models
  efficacy in in vivo tumor models: effective in in vivo tumor models
other
  cytotoxicity in vitro relative to nemorubicin and doxorubicin: more cytotoxic than nemorubicin and doxorubicin
